This is an account of results in article PMC2832868 (Journal of Medicinal Chemistry, 2010).

A short description of data set [1]: Solubility in aqueous buffer. The class given is physicochemical.
For data set [2] the following is noted: mice, cited from earlier work.
The next data set is described as follows: Pharmacokinetics in mice. The class given is in vivo.

Read-outs that look alike come from different tables or passages of the source. Marks after values point to notes of the source that are not given here.

As for `NC1(Cc2ccc(Cl)cc2)CCN(c2ncnc3[nH]ccc23)CC1` [Compound 2, 4-(4-chlorobenzyl)-1-(7H-pyrrolo[2,3-d]pyrimidin-4-yl)piperidin-4-amine], the “solubility (S) at pH 7” value in data set [1] is reported as “negligible solubility”. For the same compound, in data set [2] (oral administration of same dose (25 mg kg^−1)), the Foral was 8.5%. Besides, in data set [2] (plasma, IV dose 25 mg kg^−1), the Clp was 0.33 L/h.

Take `CC(C)(C)c1ccc(CC2(N)CCN(c3ncnc4[nH]ccc34)CC2)cc1` [Compound 10, 4-(4-tert-Butylbenzyl)-1-(7H-pyrrolo[2,3-d]pyrimidin-4-yl)piperidin-4-amine]: the Foral in “Pharmacokinetics in mice” (oral administration of same dose (10 mg kg^−1)) is <1 ^c %. Also, in “Pharmacokinetics in mice” (oral dosing 10 mg/kg), the “drug levels following oral dosing” value is “no measurable drug levels”.
